In patent US7183267B2, “β-lactamase inhibitors and methods of use thereof” (priority 2003, dated 2007):

System: methicillin resistant S. aureus from Stanford University Hospital (MRSA-SU)
Assay: Matrix system: oxacillin plus β-lactamase inhibitor, MRSA-SU
Assay type: cell-based
Set-up: key to growth score: 0 = no growth, 3 = growth equal to negative solvent control
Description: To each well of a 96 well microtiter plate was added 47.5 μl of MHB. A volume of 2.5 μl of each dilution of oxacillin was then transferred to appropriate wells containing the medium. All wells, except the sterility control wells, were then inoculated with 50 μl of a diluted cell suspension to give a final volume of 100 μl and a final cell density of 5×10^4 CFU/well. The volume in the sterility control wells was adjusted to 100 μl with MHB. A sterile pipette tip was used to mix the contents of each well (one tip was used going from the low to the high concentration in the same column). The microtiter plates were covered with the lids and were placed in large Stratagene Big Blue plates (Cat. # 400041). Four large kimwipes moistened with tap water were placed near the edges of the Stratagene plates to prevent evaporation of the medium. The microtiter plates were incubated for at least 24 hours at 35° C. The plates were then evaluated for growth in each well. Controls included: medium sterility and negative control (medium and bacteria only).
A numerical code was used to evaluate the extent of growth as indicated below. • 0: absence of growth • 1: barely visible (faint) growth • 2: fair growth but less than the negative solvent control • 3: growth is equivalent to the negative solvent control.
The lowest dose at which no visible growth is observed was determined to be the MIC value.
The effect of the four compounds of the present invention on oxacillin resistance of the MRSA strains was determined using a matrix system. The β-lactamase inhibitors were tested at 5 doses against up to eleven concentrations of oxacillin. […] A 96-well microtiter plate was used for the matrix system. The procedure was identical to that described above for the MIC determination, with the exception that both oxacillin and one each of the β-lactamase inhibitors was added, 2.5 μl each, to the wells prior to addition of the test organisms.
Matrix Study:Oxacillin and Compound FL201 with MRSA-SU
Matrix Study: Oxacillin and Compound FL202 with MRSA-SU

COC(=O)c1cc(B(O)O)cc([N+](=O)[O-])c1 [Compound F1202]
3: growth score (Table 18, oxacillin 0, F1202 16 μg/ml) | growth score (Table 18, oxacillin 0, F1202 32 μg/ml) | growth score (Table 18, oxacillin 0, F1202 64 μg/ml)
1 µg/mL: MIC (oxacillin) (Table 18, in presence of F1202 64 μg/ml)
1: growth score (Table 18, oxacillin 0, F1202 128 μg/ml) | growth score (Table 18, oxacillin 0.064 μg/ml + F1202 16 μg/ml) | growth score (Table 18, oxacillin 0.064 μg/ml + F1202 32 μg/ml) | growth score (Table 18, oxacillin 0.064 μg/ml + F1202 64 μg/ml) | growth score (Table 18, oxacillin 0.064 μg/ml + F1202 128 μg/ml) | growth score (Table 18, oxacillin 0.125 μg/ml + F1202 16 μg/ml) | growth score (Table 18, oxacillin 0.125 μg/ml + F1202 32 μg/ml) | growth score (Table 18, oxacillin 0.125 μg/ml + F1202 64 μg/ml) | growth score (Table 18, oxacillin 0.125 μg/ml + F1202 128 μg/ml) | growth score (Table 18, oxacillin 0.25 μg/ml + F1202 16 μg/ml) | growth score (Table 18, oxacillin 0.25 μg/ml + F1202 32 μg/ml) | growth score (Table 18, oxacillin 0.25 μg/ml + F1202 64 μg/ml) | growth score (Table 18, oxacillin 0.5 μg/ml + F1202 16 μg/ml) | growth score (Table 18, oxacillin 0.5 μg/ml + F1202 32 μg/ml) | growth score (Table 18, oxacillin 0.5 μg/ml + F1202 64 μg/ml) | growth score (Table 18, oxacillin 1 μg/ml + F1202 16 μg/ml) | growth score (Table 18, oxacillin 1 μg/ml + F1202 32 μg/ml) | growth score (Table 18, oxacillin 2 μg/ml + F1202 16 μg/ml) | growth score (Table 18, oxacillin 2 μg/ml + F1202 32 μg/ml) | growth score (Table 18, oxacillin 4 μg/ml + F1202 16 μg/ml) | growth score (Table 18, oxacillin 16 μg/ml + F1202 16 μg/ml)
64 µg/mL: MIC (oxacillin) (Table 18, in presence of F1202 16 μg/ml)
0.25 µg/mL: MIC (oxacillin) (Table 18, in presence of F1202 128 μg/ml)
4 µg/mL: MIC (oxacillin) (Table 18, in presence of F1202 32 μg/ml)
0: growth score (Table 18, oxacillin 0, F1202 256 μg/ml) | growth score (Table 18, oxacillin 0.064 μg/ml + F1202 256 μg/ml) | growth score (Table 18, oxacillin 0.125 μg/ml + F1202 256 μg/ml) | growth score (Table 18, oxacillin 0.25 μg/ml + F1202 128 μg/ml) | growth score (Table 18, oxacillin 0.25 μg/ml + F1202 256 μg/ml) | growth score (Table 18, oxacillin 0.5 μg/ml + F1202 128 μg/ml) | growth score (Table 18, oxacillin 0.5 μg/ml + F1202 256 μg/ml) | growth score (Table 18, oxacillin 1 μg/ml + F1202 64 μg/ml) | growth score (Table 18, oxacillin 1 μg/ml + F1202 128 μg/ml) | growth score (Table 18, oxacillin 1 μg/ml + F1202 256 μg/ml) | growth score (Table 18, oxacillin 2 μg/ml + F1202 64 μg/ml) | growth score (Table 18, oxacillin 2 μg/ml + F1202 128 μg/ml) | growth score (Table 18, oxacillin 2 μg/ml + F1202 256 μg/ml) | growth score (Table 18, oxacillin 4 μg/ml + F1202 32 μg/ml) | growth score (Table 18, oxacillin 4 μg/ml + F1202 64 μg/ml) | growth score (Table 18, oxacillin 4 μg/ml + F1202 128 μg/ml) | growth score (Table 18, oxacillin 4 μg/ml + F1202 256 μg/ml) | growth score (Table 18, oxacillin 16 μg/ml + F1202 32 μg/ml) | growth score (Table 18, oxacillin 16 μg/ml + F1202 64 μg/ml) | growth score (Table 18, oxacillin 16 μg/ml + F1202 128 μg/ml) | growth score (Table 18, oxacillin 16 μg/ml + F1202 256 μg/ml) | growth score (Table 18, oxacillin 64 μg/ml + F1202 16 μg/ml) | growth score (Table 18, oxacillin 64 μg/ml + F1202 32 μg/ml) | growth score (Table 18, oxacillin 64 μg/ml + F1202 64 μg/ml) | growth score (Table 18, oxacillin 64 μg/ml + F1202 128 μg/ml) | growth score (Table 18, oxacillin 64 μg/ml + F1202 256 μg/ml) | growth score (Table 18, oxacillin 128 μg/ml + F1202 16 μg/ml) | growth score (Table 18, oxacillin 128 μg/ml + F1202 32 μg/ml) | growth score (Table 18, oxacillin 128 μg/ml + F1202 64 μg/ml) | growth score (Table 18, oxacillin 128 μg/ml + F1202 128 μg/ml) | growth score (Table 18, oxacillin 128 μg/ml + F1202 256 μg/ml) | growth score (Table 18, oxacillin 256 μg/ml + F1202 16 μg/ml) | growth score (Table 18, oxacillin 256 μg/ml + F1202 32 μg/ml) | growth score (Table 18, oxacillin 256 μg/ml + F1202 64 μg/ml) | growth score (Table 18, oxacillin 256 μg/ml + F1202 128 μg/ml) | growth score (Table 18, oxacillin 256 μg/ml + F1202 256 μg/ml)

Cc1onc(-c2ccccc2)c1C(=O)N[C@@H]1C(=O)N2[C@@H]1SC(C)(C)[C@@H]2C(=O)O [Oxacillin, reference compound]
256 µg/mL: MIC (Staphylococcus aureus, 24 h, Table 17, oxacillin alone, F1201 0) | MIC (oxacillin) (Table 18, oxacillin alone, F1202 0)
0: growth score (Table 17, oxacillin 256 μg/ml, F1201 0) | growth score (Table 18, oxacillin 256 μg/ml, F1202 0)
1: growth score (Table 17, oxacillin 128 μg/ml, F1201 0)
2: growth score (Table 17, oxacillin 64 μg/ml, F1201 0) | growth score (Table 18, oxacillin 64 μg/ml, F1202 0) | growth score (Table 18, oxacillin 128 μg/ml, F1202 0)
3: growth score (Table 17, oxacillin 0.064 μg/ml, F1201 0) | growth score (Table 17, oxacillin 0.125 μg/ml, F1201 0) | growth score (Table 17, oxacillin 0.25 μg/ml, F1201 0) | growth score (Table 17, oxacillin 0.5 μg/ml, F1201 0) | growth score (Table 17, oxacillin 1 μg/ml, F1201 0) | growth score (Table 17, oxacillin 2 μg/ml, F1201 0) | growth score (Table 17, oxacillin 4 μg/ml, F1201 0) | growth score (Table 17, oxacillin 16 μg/ml, F1201 0) | growth score (Table 18, oxacillin 0.064 μg/ml, F1202 0) | growth score (Table 18, oxacillin 0.125 μg/ml, F1202 0) | growth score (Table 18, oxacillin 0.25 μg/ml, F1202 0) | growth score (Table 18, oxacillin 0.5 μg/ml, F1202 0) | growth score (Table 18, oxacillin 1 μg/ml, F1202 0) | growth score (Table 18, oxacillin 2 μg/ml, F1202 0) | growth score (Table 18, oxacillin 4 μg/ml, F1202 0) | growth score (Table 18, oxacillin 16 μg/ml, F1202 0)
